# Source: patent US20210106703A1, “RADIOIMMUNOCONJUGATES IN COMBINATION WITH OTHER DRUGS AS TREATMENT AGAINST NHL” (Nordic Nanovector ASA, priority 2017, published 2021)
# Where two headings read alike, the source gives them in different places.
# Columns and labels:
# U2932 cells = assay: Real Time Glo viability assay, Betalutin and cell cycle inhibitors (Example 2); format: cell-based, human; conditions: for viability at 0.1 µM / viability at 1 µM: Homo sapiens; for viability at 0.1 µM: U2932, U2932, drug 100 nM
# Experimental: (§1) Cells were split twice a week 1:3-1:5 depending on cell density. […] Real Time Glo was purchased from Promega. 384 well plates were purchased from Greiner Bio-One.
# (§2) Cells were treated for 18-20 h with Betalutin at a final concentration of 1 μg/ml and 2 μg/ml in 6-well cell culture plates with shaking. After treatment, PBS was added to the cells, and the cells pelleted. Cells were first resuspended in 1 ml PBS, then washed twice in PBS and finally diluted in growth medium at the desired concentration. All cell lines were treated at a cell concentration of 2.5*10^6 cells/ml.
# (§3) Regardless of cell number the culturing volume was 25 μl. For Real Time Glo, the Cell Viability Substrate and NanoLuc® Enzyme were diluted 1:500 in growth medium, and 25 μL of diluted reagents added to each well. All reagents were equilibrated to 37° C. Cells were incubated with the reaction mix for 1 h at 37° C. before the first measurement of luminescence. Measurements were repeated as often as required within 72 h after adding the reagents. Digitonin was added to cells at 200 μg/ml to record background luminescence of dead cells. A Tecan SPARK 10M plate reader was used to measure luminescence, with an integration time set to 1 sec.
# (§4) Growth inhibition was calculated by dividing the luminescence signal of the treated cells by the luminescence signal of the control cells for each day of measurement after start of treatment [Table 1].
# (§5) To evaluate effects of the drugs alone [(−)Betalutin] and their combination with Betalutin [(+)Betalutin], we calculated the Z-score for each sample (ZdrugX=1-(+)BetalutindrugX/(−)BetalutindrugX), where (+)BetalutindrugX and (−) BetalutindrugX are the measured luminescence intensity values for drug X in presence and absence of Betalutin, respectively. The calculation of Z-score values separately for each plate enabled comparison of results across plates, despite variations between the plates in overall signal intensity.
# RIVA cells = assay: as above; format: cell-based, human; conditions: for viability at 0.1 µM / viability at 1 µM: Homo sapiens, read-out: Growth inhibition (signal treated/control; 1 = no change); for viability at 0.1 µM: drug 100 nM
# Experimental: as §1, §2, §3, §4, §5
# [1] = (+)Betalutin, Dy3, read-out: Growth inhibition (signal treated/control; 1 = no change)
# [2] = (+)Betalutin, Dy4, read-out: Growth inhibition (signal treated/control; 1 = no change)
# [3] = (+)Betalutin, Dy5, read-out: Growth inhibition (signal treated/control; 1 = no change)
# [4] = (+)Betalutin, Dy6, read-out: Growth inhibition (signal treated/control; 1 = no change)
# [5] = (−)Betalutin, Dy3, read-out: Growth inhibition (signal treated/control; 1 = no change)
# [6] = (−)Betalutin, Dy4, read-out: Growth inhibition (signal treated/control; 1 = no change)
# [7] = (−)Betalutin, Dy5, read-out: Growth inhibition (signal treated/control; 1 = no change)
# [8] = (−)Betalutin, Dy6, read-out: Growth inhibition (signal treated/control; 1 = no change)
# [9] = U2932, U2932, drug 1 μM, (+)Betalutin, Dy3, read-out: Growth inhibition (signal treated/control; 1 = no change)
# [10] = U2932, U2932, drug 1 μM, (+)Betalutin, Dy4, read-out: Growth inhibition (signal treated/control; 1 = no change)
# [11] = U2932, U2932, drug 1 μM, (+)Betalutin, Dy5, read-out: Growth inhibition (signal treated/control; 1 = no change)
# [12] = U2932, U2932, drug 1 μM, (+)Betalutin, Dy6, read-out: Growth inhibition (signal treated/control; 1 = no change)
# [13] = U2932, U2932, drug 1 μM, (−)Betalutin, Dy3, read-out: Growth inhibition (signal treated/control; 1 = no change)
# [14] = U2932, U2932, drug 1 μM, (−)Betalutin, Dy4, read-out: Growth inhibition (signal treated/control; 1 = no change)
# [15] = U2932, U2932, drug 1 μM, (−)Betalutin, Dy5, read-out: Growth inhibition (signal treated/control; 1 = no change)
# [16] = U2932, U2932, drug 1 μM, (−)Betalutin, Dy6, read-out: Growth inhibition (signal treated/control; 1 = no change)
# [17] = RIVA, drug 1 μM, +Betalutin, Dy3
# [18] = RIVA, drug 1 μM, +Betalutin, Dy4
# [19] = RIVA, drug 1 μM, +Betalutin, Dy5
# [20] = RIVA, drug 1 μM, +Betalutin, Dy6
# [21] = RIVA, drug 1 μM, −Betalutin, Dy3
# [22] = RIVA, drug 1 μM, −Betalutin, Dy4
# [23] = RIVA, drug 1 μM, −Betalutin, Dy5
# [24] = RIVA, drug 1 μM, −Betalutin, Dy6
Compound,viability at 0.1 µM (U2932 cells; [1]) [%],viability at 0.1 µM (U2932 cells; [2]) [%],viability at 0.1 µM (U2932 cells; [3]) [%],viability at 0.1 µM (U2932 cells; [4]) [%],viability at 0.1 µM (U2932 cells; [5]) [%],viability at 0.1 µM (U2932 cells; [6]) [%],viability at 0.1 µM (U2932 cells; [7]) [%],viability at 0.1 µM (U2932 cells; [8]) [%],viability at 1 µM (U2932 cells; [9]) [%],viability at 1 µM (U2932 cells; [10]) [%],viability at 1 µM (U2932 cells; [11]) [%],viability at 1 µM (U2932 cells; [12]) [%],viability at 1 µM (U2932 cells; [13]) [%],viability at 1 µM (U2932 cells; [14]) [%],viability at 1 µM (U2932 cells; [15]) [%],viability at 1 µM (U2932 cells; [16]) [%],"Synergy for the combination with Betalutin (U2932 cells; U2932, drug 100 nM)","Synergy for the combination with Betalutin (U2932 cells; U2932, drug 1 μM)","viability at 0.1 µM (RIVA cells; RIVA, +Betalutin, Dy3) [%]","viability at 0.1 µM (RIVA cells; RIVA, +Betalutin, Dy4) [%]",other results
Cc1csc(-c2nnc(Nc3ccc(Oc4ncccc4-c4ccnc(N)n4)cc3)c3ccccc23)c1 [AMG 900],89,78,77,52,96,97,92,72,77,77,80,58,83,96,96,81,Bliss + Z-score,Z-score,22,16,"viability at 0.1 µM (RIVA cells; RIVA, +Betalutin, Dy5): 9%; viability at 0.1 µM (RIVA cells; RIVA, +Betalutin, Dy6): 8%; viability at 0.1 µM (RIVA cells; RIVA, −Betalutin, Dy3): 82%; viability at 0.1 µM (RIVA cells; RIVA, −Betalutin, Dy4): 85%; viability at 0.1 µM (RIVA cells; RIVA, −Betalutin, Dy5): 65%; viability at 0.1 µM (RIVA cells; RIVA, −Betalutin, Dy6): 51%; viability at 1 µM (RIVA cells; [17]): 9%; viability at 1 µM (RIVA cells; [18]): 8%; viability at 1 µM (RIVA cells; [19]): 5%; viability at 1 µM (RIVA cells; [20]): 4%; viability at 1 µM (RIVA cells; [21]): 60%; viability at 1 µM (RIVA cells; [22]): 57%; viability at 1 µM (RIVA cells; [23]): 49%; viability at 1 µM (RIVA cells; [24]): 40%"
NC(=O)Nc1cc(-c2cccc(F)c2)sc1C(=O)N[C@H]1CCCNC1 [AZD7762],–,–,–,–,–,–,–,–,–,–,–,–,–,–,–,–,Bliss + Z-score,–,–,–,"viability at 1 µM (U2932 cells; U2932, read-out: Growth inhibition (signal treated/control; 1 = no change)): 4%; Growth inhibition (signal treated/control; 1 = no change) (U2932 cells; human): 0.03; viability at 1 µM (RIVA cells): 3%; Growth inhibition (signal treated/control; 1 = no change) (RIVA cells; human): 0.34"
Cc1nc(N)sc1-c1ccnc(Nc2ccc(N3CCOCC3)cc2)n1 [CYC116],92,94,80,75,94,97,106,121,72,82,74,56,85,89,83,61,Bliss + Z-score,Z-score,13,10,"viability at 0.1 µM (RIVA cells; RIVA, +Betalutin, Dy5): 6%; viability at 0.1 µM (RIVA cells; RIVA, +Betalutin, Dy6): 6%; viability at 0.1 µM (RIVA cells; RIVA, −Betalutin, Dy3): 93%; viability at 0.1 µM (RIVA cells; RIVA, −Betalutin, Dy4): 94%; viability at 0.1 µM (RIVA cells; RIVA, −Betalutin, Dy5): 114%; viability at 0.1 µM (RIVA cells; RIVA, −Betalutin, Dy6): 92%; viability at 1 µM (RIVA cells; [17]): 22%; viability at 1 µM (RIVA cells; [18]): 20%; viability at 1 µM (RIVA cells; [19]): 14%; viability at 1 µM (RIVA cells; [20]): 14%; viability at 1 µM (RIVA cells; [21]): 62%; viability at 1 µM (RIVA cells; [22]): 78%; viability at 1 µM (RIVA cells; [23]): 70%; viability at 1 µM (RIVA cells; [24]): 65%"
